Literature values in paper PMC6376154 (International Journal for Parasitology: Drugs and Drug …, 2019).
Like-named read-outs stand apart in the source and are kept apart here.

Test system: P. falciparum 3D7 asexual blood stage
Settings: cited from earlier work
[1] = MMV Malaria Box data sheet (supplement mmc2.xls), ref MMV data sheet
[2] = MMV Malaria Box data sheet (supplement mmc2.xls), ref MMV data sheet, read-out: EC50_nM
[3] = MMV Malaria Box sheet, ref MMV data sheets
[4] = MMV Malaria Box sheet, ref MMV data sheets, read-out: EC50_nM
[5] = source StJude, ref ChEMBL_NTD, read-out: CHEMBL EC50
[6] = ChEMBL-NTD value per source (GNF, GSK, StJude), several values in a cell follow the order of the sources, read-out: CHEMBL EC50
[7] = MMV Malaria Box data sheet, ref MMV data sheets
[8] = MMV Malaria Box data sheet, ref MMV data sheets, read-out: EC50_nM
[9] = source GNF, ref ChEMBL_NTD, read-out: CHEMBL EC50
[10] = source GSK, ref ChEMBL_NTD, read-out: CHEMBL EC50
[11] = value(s) per source (GSK, GNF, StJude), separated by semicolon, ref ChEMBL-NTD, read-out: CHEMBL EC50

SMILES: CCN(CC)CCn1c(=N)n(CC(O)c2ccc(Cl)c(Cl)c2)c2ccccc21 (stereo not drawn) [MMV000248]
- percent_inh @ 5 uM [1]: 97%
- EC50 [2]: 718 nM

SMILES: CCOc1ccc(Nc2c3ccccc3nc3ccccc23)cc1 [MMV000304]
- percent_inh @ 5 uM [3]: 97%
- EC50 [4]: 1060 nM
- EC50 [5]: 5720 nM

SMILES: Cc1ccc2nc(C)cc(Nc3cccc(C(F)(F)F)c3)c2c1 [MMV000326]
- percent_inh @ 5 uM [3]: 98%
- EC50 [4]: 1170 nM
- EC50 [5]: 879 nM

SMILES: CCn1c2c(c(=N)c3c1CCC3)CCCC2 [MMV000340]
- EC50 [6]: 3120 nM

SMILES: CC(C)(C)c1ccc2c(c1)CN(Cc1ccc(Cl)cc1)CO2 [MMV000442]
- percent_inh @ 5 uM [3]: 98%
- EC50 [4]: 362 nM
- EC50 [5]: 255 nM

SMILES: CCOc1ccc2c(c1)CN(Cc1ccc(Cl)cc1)CO2 [MMV000443]
- percent_inh @ 5 uM [3]: 97%
- EC50 [4]: 439 nM
- EC50 [5]: 1490 nM

SMILES: CCCCCn1c(=N)n(CC(O)COc2cccc(C)c2)c2ccccc21 (stereo not drawn) [MMV000444]
- percent_inh @ 5 uM [3]: 96%
- EC50 [5]: 2650 nM

SMILES: CCCCCCn1c(=N)n(CC(O)COc2cccc(C)c2)c2ccccc21 (stereo not drawn) [MMV000445]
- percent_inh @ 5 uM [3]: 98%
- EC50 [4]: 1140 nM
- EC50 [5]: 1970 nM

SMILES: CN(C)CCCNc1c2ccccc2nc2ccccc12 [MMV000448]
- percent_inh @ 5 uM [7]: 95%
- EC50 [8]: 235 nM
- EC50 [9]: 32.7 nM
- EC50 [10]: 1040 nM
- EC50 [5]: 531 nM

SMILES: CCOc1cc2c(cc1OCC)C(c1cc(Cl)c(O)c(OCC)c1)NCC2 (stereo not drawn) [MMV000481]
- percent_inh @ 5 uM [3]: 96%
- EC50 [4]: 1330 nM
- EC50 [5]: 3010 nM

SMILES: CCOc1cc2c(cc1OCC)C(c1cc(C)c(O)c(C)c1)NCC2 (stereo not drawn) [MMV000483]
- percent_inh @ 5 uM [3]: 97%
- EC50 [4]: 683 nM
- EC50 [5]: 1830 nM

SMILES: CCN(CC)c1cc(C)c2cc(NC(=O)c3cccc(OC)c3)ccc2n1 [MMV000498]
- percent_inh @ 5 uM [1]: 97%
- EC50 [11]: 4770 nM

SMILES: CCCN(CCC)CCCNC(=O)c1cc2c(-c3ccc(OC)c(OC)c3)nn(C)c2s1 [MMV000561]
- percent_inh @ 5 uM [1]: 98%
- EC50 [2]: 1430 nM
- EC50 [11]: 4040 nM

SMILES: COc1ccc(C2Sc3ccccc3N=C3C2=C(O)c2ccccc23)cc1 (stereo not drawn) [MMV000563]
- percent_inh @ 5 uM [7]: 96%
- EC50 [8]: 845 nM
- EC50 [9]: 238 nM

SMILES: CCc1ccc(Nc2cc(C)c3ccc(O)cc3n2)cc1 [MMV000570]
- percent_inh @ 5 uM [7]: 98%
- EC50 [8]: 194 nM
- EC50 [5]: 732 nM

SMILES: COc1ccc(-c2cc(=O)oc3c4c(ccc23)OCN(Cc2ccc(F)cc2)C4)cc1 [MMV000604]
- percent_inh @ 5 uM [3]: 96%
- EC50 [4]: 735 nM
- EC50 [5]: 5210 nM

SMILES: COc1ccc(C(O)(CCC(C)C)C(CN2CCOCC2)c2ccc(Cl)cc2)cc1 (stereo not drawn) [MMV000617]
- EC50 [6]: 4610 nM

SMILES: CCCCC(O)(c1ccc(Cl)cc1)C(CN1CCOCC1)c1ccc(Cl)cc1 (stereo not drawn) [MMV000619]
- percent_inh @ 5 uM [3]: 98%
- EC50 [4]: 1380 nM
- EC50 [5]: 4010 nM

SMILES: CC(O)(c1ccc(Cl)cc1)C(CN1CCCCC1)c1ccccc1 (stereo not drawn) [MMV000620]
- percent_inh @ 5 uM [7]: 94%
- EC50 [5]: 916 nM

SMILES: CCCCCCC(O)(c1ccc(F)cc1)C(CN1CCOCC1)c1ccccc1 (stereo not drawn) [MMV000621]
- percent_inh @ 5 uM [3]: 93%
- EC50 [5]: 3180 nM

SMILES: CC1CCCCN1CCCNC(=O)c1ccc2c(c1)sc1nc(-c3ccc(F)cc3)cn12 (stereo not drawn) [MMV000634]
- percent_inh @ 5 uM [7]: 98%
- EC50 [8]: 648 nM
- EC50 [5]: 634 nM

SMILES: COc1ccc(NC(=O)C2c3ccccc3C(=O)N(CC(C)C)C2c2cccs2)cc1Cl (stereo not drawn) [MMV000642]
- percent_inh @ 5 uM [7]: 100%
- EC50 [8]: 20.2 nM
- EC50 [9]: 91.4 nM
- EC50 [5]: 119 nM

SMILES: COc1ccccc1CNC(=O)C1c2ccccc2C(=O)N(CC(C)C)C1c1cccs1 (stereo not drawn) [MMV000648]
- percent_inh @ 5 uM [1]: 97%
- EC50 [11]: 3160 nM

SMILES: CCOc1ccccc1CNC(=O)C1c2ccccc2C(=O)N(CC(C)C)C1c1cccs1 (stereo not drawn) [MMV000653]
- percent_inh @ 5 uM [7]: 97%
- EC50 [8]: 1320 nM
- EC50 [5]: 1430 nM

SMILES: COc1ccc(NC(=O)C2c3ccccc3C(=O)N(CC(C)C)C2c2cccs2)cc1 (stereo not drawn) [MMV000662]
- percent_inh @ 5 uM [7]: 100%
- EC50 [8]: 36.7 nM
- EC50 [5]: 102 nM

SMILES: Cc1ccc(C2CC(C(F)(F)F)n3nc(C(=O)N4CCN(C(c5ccccc5)c5ccccc5)CC4)cc3N2)cc1 (stereo not drawn) [MMV000699]
- percent_inh @ 5 uM [3]: 98%
- EC50 [4]: 454 nM
- EC50 [5]: 668 nM

SMILES: Cc1ccnc(NC(c2cccc(OCc3ccccc3)c2)c2ccc3cccnc3c2O)c1 (stereo not drawn) [MMV000720]
- percent_inh @ 5 uM [3]: 97%
- EC50 [4]: 1020 nM
- EC50 [10]: 864 nM
- EC50 [5]: 1810 nM

SMILES: Oc1c(CN2CCN(c3ccccc3F)CC2)cc(Br)c2cccnc12 [MMV000760]
- percent_inh @ 5 uM [3]: 91%
- EC50 [5]: 3760 nM

SMILES: CCCOCc1cc(CN2CCN(c3cccc(Cl)c3)CC2)c(O)c2ncccc12 [MMV000787]
- EC50 [6]: 1100 nM

SMILES: CC(C)OCc1cc(CN2CCN(c3cccc(Cl)c3)CC2)c(O)c2ncccc12 [MMV000788]
- percent_inh @ 5 uM [1]: 98%
- EC50 [2]: 697 nM
- EC50 [11]: 941 nM

SMILES: OC(CNCc1ccccc1)Cn1c2ccccc2c2ccccc21 (stereo not drawn) [MMV000839]
- percent_inh @ 5 uM [3]: 95%
- EC50 [4]: 1080 nM
- EC50 [5]: 3760 nM
